These results are taken from patent publication US20120121591A1 (priority 2009, published 2012).

Common to all, as to format: cell-based
For experiment [1], the system named is IL-2 secretion from T cells in human whole blood. The note with it: read-out: WB (IL-2) IC50 (nM, Avg).
For experiment [2], the system named is IFN-g secretion from T cells in human whole blood.
Another experiment has as its target hKv1.3 (Homo sapiens, UniProt P22001). In words: cell-based. The note with it: Kv1.3 (IWQ) IC50 (nM, Avg).
Where [3] appears, read: read-out: WB (IFNg) IC50 (nM, Avg).
Where [4] appears, read: read-out: WB (IFNg) IC5- (nM, Avg).

Read-outs that look alike come from different tables or passages of the source. Positions of bridges follow the written chain, without caps; N, C: chain ends. Residues, ends and D or L forms follow the SMILES beside them.

Sequence of hKv1.3 (P22001 whole entry): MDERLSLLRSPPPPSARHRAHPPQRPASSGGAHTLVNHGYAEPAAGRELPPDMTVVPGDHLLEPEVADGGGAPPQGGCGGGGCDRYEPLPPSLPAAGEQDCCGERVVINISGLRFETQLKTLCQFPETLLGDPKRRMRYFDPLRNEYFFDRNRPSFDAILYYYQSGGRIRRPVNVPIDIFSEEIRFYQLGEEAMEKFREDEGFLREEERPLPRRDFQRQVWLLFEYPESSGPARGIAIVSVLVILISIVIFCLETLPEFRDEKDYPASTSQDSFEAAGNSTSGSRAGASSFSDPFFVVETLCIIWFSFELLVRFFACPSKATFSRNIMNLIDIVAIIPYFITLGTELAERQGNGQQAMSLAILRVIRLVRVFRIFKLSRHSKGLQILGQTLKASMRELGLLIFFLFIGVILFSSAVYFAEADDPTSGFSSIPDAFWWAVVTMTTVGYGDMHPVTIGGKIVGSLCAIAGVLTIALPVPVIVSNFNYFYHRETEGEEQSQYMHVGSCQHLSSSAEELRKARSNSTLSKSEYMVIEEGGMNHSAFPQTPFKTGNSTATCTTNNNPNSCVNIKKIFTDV

With `CC[C@H](C)[C@@H]1NC(=O)[C@@H](NC(=O)[C@H](CO)NC(=O)[C@@H](N)CCCNC(=N)N)CSSC[C@@H](C(=O)O)NC(=O)[C@H]([C@@H](C)O)NC(=O)CNC(=O)[C@@H]2CSSC[C@@H]3NC(=O)[C@H](CCC(N)=O)NC(=O)[C@H](Cc4ccccc4)NC(=O)[C@H](C)NC(=O)[C@H]([C@@H](C)O)NC(=O)[C@H](CSSC[C@H](NC(=O)[C@H](Cc4ccccc4)NC(=O)[C@H](CO)NC(=O)[C@H](CC(C)C)NC(=O)[C@H](CCCNC(=N)N)NC(=O)[C@H](Cc4ccc(O)cc4)NC(=O)[C@H](CCCCN)NC(=O)[C@H](CCSC)NC(=O)[C@H](CO)NC(=O)[C@H](Cc4c[nH]cn4)NC(=O)[C@H](CCCCN)NC3=O)C(=O)N[C@@H](CCCNC(=N)N)C(=O)N[C@@H](CCCCN)C(=O)N[C@@H](CCCNC(=N)N)C(=O)N2)NC(=O)[C@H](CCCNC(=N)N)NC(=O)[C@H](CO)NC(=O)[C@H](CCCCN)NC(=O)[C@@H]2CCCN2C(=O)[C@H]([C@@H](C)CC)NC(=O)[C@H]([C@@H](C)O)NC(=O)[C@H](CC(=O)O)NC1=O` [[Arg31]ShK], the IC50 in experiment [1] is 12 nM; in experiment [2] (setting [3]) it was 54.8 nM; on hKv1.3, 3.3 nM.

`CC[C@H](C)[C@@H]1NC(=O)[C@@H](NC(=O)[C@H](CO)NC(=O)[C@@H](N)CCCNC(=N)N)CSSC[C@@H](C(=O)O)NC(=O)[C@H]([C@@H](C)O)NC(=O)[C@H](CCCNC(=N)N)NC(=O)[C@@H]2CSSC[C@@H]3NC(=O)[C@H](CCC(N)=O)NC(=O)[C@H](Cc4ccccc4)NC(=O)[C@H](C)NC(=O)[C@H]([C@@H](C)O)NC(=O)[C@H](CSSC[C@H](NC(=O)[C@H](Cc4ccccc4)NC(=O)[C@H](CO)NC(=O)[C@H](CC(C)C)NC(=O)[C@H](CCCNC(=N)N)NC(=O)[C@H](Cc4ccc(O)cc4)NC(=O)[C@H](CCCCN)NC(=O)[C@H](CCSC)NC(=O)[C@H](CO)NC(=O)[C@H](Cc4c[nH]cn4)NC(=O)[C@H](CCCCN)NC3=O)C(=O)N[C@@H](CCCNC(=N)N)C(=O)N[C@@H](CCCCN)C(=O)N[C@@H]([C@@H](C)O)C(=O)N2)NC(=O)[C@H](CCCNC(=N)N)NC(=O)[C@H](CO)NC(=O)[C@H](CCCCN)NC(=O)[C@@H]2CCCN2C(=O)[C@H]([C@@H](C)CC)NC(=O)[C@H]([C@@H](C)O)NC(=O)[C@H](CC(=O)O)NC1=O` [[Arg33]ShK]: the IC50 in experiment [1] amounted to 0.068 nM; in experiment [2] (setting [3]), 0.232 nM; on hKv1.3, 0.102 nM.

In the case of `CCCC[C@@H]1NC(=O)[C@H](CO)NC(=O)[C@H](Cc2c[nH]cn2)NC(=O)[C@H](CCCCN)NC(=O)[C@@H]2CSSC[C@@H]3NC(=O)[C@H]([C@@H](C)O)NC(=O)[C@H](CCCCN)NC(=O)[C@H](CCCNC(=N)N)NC(=O)[C@H](CSSC[C@H](NC(=O)[C@H](CCCNC(=N)N)NC(=O)[C@H](CO)NC(=O)[C@H](CCCCN)NC(=O)[C@@H]4CCCN4C(=O)[C@H]([C@@H](C)CC)NC(=O)[C@H]([C@@H](C)O)NC(=O)[C@H](CC(=O)O)NC(=O)[C@H]([C@@H](C)CC)NC(=O)[C@@H](NC(=O)[C@H](CO)NC(=O)[C@@H](N)CCCNC(=N)N)CSSC[C@@H](C(N)=O)NC(=O)[C@H]([C@@H](C)O)NC(=O)CNC3=O)C(=O)N[C@@H]([C@@H](C)O)C(=O)N[C@@H](C)C(=O)N[C@@H](Cc3ccccc3)C(=O)N[C@@H](CC(N)=O)C(=O)N2)NC(=O)[C@H](Cc2ccccc2)NC(=O)[C@H](CO)NC(=O)[C@H](CC(C)C)NC(=O)[C@H](CCCNC(=N)N)NC(=O)[C@H](Cc2ccc(O)cc2)NC(=O)[C@H](CCCCN)NC1=O` [[Asn16,Nle21]ShK-amide], the IC50 in experiment [1] came to 0.689 nM; in experiment [2] (setting [3]) it was 1.07 nM; against hKv1.3, 0.171 nM.

On to `CC[C@H](C)[C@@H]1NC(=O)[C@@H](NC(=O)[C@H](CO)NC(=O)[C@@H](N)CCCNC(=N)N)CSSC[C@@H](C(=O)O)NC(=O)[C@H]([C@@H](C)O)NC(=O)CNC(=O)[C@@H]2CSSC[C@@H]3NC(=O)[C@H](CCN)NC(=O)[C@H](Cc4ccccc4)NC(=O)[C@H](C)NC(=O)[C@H]([C@@H](C)O)NC(=O)[C@H](CSSC[C@H](NC(=O)[C@H](Cc4ccccc4)NC(=O)[C@H](CO)NC(=O)[C@H](CC(C)C)NC(=O)[C@H](CCCNC(=N)N)NC(=O)[C@H](Cc4ccc(O)cc4)NC(=O)[C@H](CCCCN)NC(=O)[C@H](CCSC)NC(=O)[C@H](CO)NC(=O)[C@H](Cc4c[nH]cn4)NC(=O)[C@H](CCCCN)NC3=O)C(=O)N[C@@H](CCCNC(=N)N)C(=O)N[C@@H](CCCCN)C(=O)N[C@@H]([C@@H](C)O)C(=O)N2)NC(=O)[C@H](CCCNC(=N)N)NC(=O)[C@H](CO)NC(=O)[C@H](CCCCN)NC(=O)[C@@H]2CCCN2C(=O)[C@H]([C@@H](C)CC)NC(=O)[C@H]([C@@H](C)O)NC(=O)[C@H](CC(=O)O)NC1=O` [[Dab16]ShK], for which the values for the IC50 (in experiment [1]; in experiment [2] (setting [3]); against hKv1.3) were 0.086 nM, 0.223 nM and 0.082 nM, respectively.

`CC[C@H](C)[C@@H]1NC(=O)[C@@H](NC(=O)[C@H](CO)NC(=O)[C@@H](N)CCC(=O)O)CSSC[C@@H](C(=O)O)NC(=O)[C@H]([C@@H](C)O)NC(=O)CNC(=O)[C@@H]2CSSC[C@@H]3NC(=O)[C@H](CCC(N)=O)NC(=O)[C@H](Cc4ccccc4)NC(=O)[C@H](C)NC(=O)[C@H]([C@@H](C)O)NC(=O)[C@H](CSSC[C@H](NC(=O)[C@H](Cc4ccccc4)NC(=O)[C@H](CO)NC(=O)[C@H](CC(C)C)NC(=O)[C@H](CCCNC(=N)N)NC(=O)[C@H](Cc4ccc(O)cc4)NC(=O)[C@H](CCCCN)NC(=O)[C@H](CCSC)NC(=O)[C@H](CO)NC(=O)[C@H](Cc4c[nH]cn4)NC(=O)[C@H](CCCCN)NC3=O)C(=O)N[C@@H](CCCNC(=N)N)C(=O)N[C@@H](CCCCN)C(=O)N[C@@H]([C@@H](C)O)C(=O)N2)NC(=O)[C@H](CCCNC(=N)N)NC(=O)[C@H](CO)NC(=O)[C@H](CCCCN)NC(=O)[C@@H]2CCCN2C(=O)[C@H]([C@@H](C)CC)NC(=O)[C@H]([C@@H](C)O)NC(=O)[C@H](CC(=O)O)NC1=O` [[Glu1]ShK]: the IC50 in experiment [1] was found to be 0.213 nM; in experiment [2] (setting [4]), 0.249 nM; at hKv1.3 it was 0.144 nM.

For `CC[C@H](C)[C@@H]1NC(=O)[C@@H](NC(=O)[C@H](CCC(=O)O)NC(=O)[C@@H](N)CCCNC(=N)N)CSSC[C@@H](C(=O)O)NC(=O)[C@H]([C@@H](C)O)NC(=O)CNC(=O)[C@@H]2CSSC[C@@H]3NC(=O)[C@H](CCC(N)=O)NC(=O)[C@H](Cc4ccccc4)NC(=O)[C@H](C)NC(=O)[C@H]([C@@H](C)O)NC(=O)[C@H](CSSC[C@H](NC(=O)[C@H](Cc4ccccc4)NC(=O)[C@H](CO)NC(=O)[C@H](CC(C)C)NC(=O)[C@H](CCCNC(=N)N)NC(=O)[C@H](Cc4ccc(O)cc4)NC(=O)[C@H](CCCCN)NC(=O)[C@H](CCSC)NC(=O)[C@H](CO)NC(=O)[C@H](Cc4c[nH]cn4)NC(=O)[C@H](CCCCN)NC3=O)C(=O)N[C@@H](CCCNC(=N)N)C(=O)N[C@@H](CCCCN)C(=O)N[C@@H]([C@@H](C)O)C(=O)N2)NC(=O)[C@H](CCCNC(=N)N)NC(=O)[C@H](CO)NC(=O)[C@H](CCCCN)NC(=O)[C@@H]2CCCN2C(=O)[C@H]([C@@H](C)CC)NC(=O)[C@H]([C@@H](C)O)NC(=O)[C@H](CC(=O)O)NC1=O` [[Glu2]ShK], the values for the IC50 (in experiment [1]; in experiment [2] (setting [4]); against hKv1.3) were 0.029 nM, 0.039 nM and 0.111 nM, respectively.

Regarding `CC[C@H](C)[C@@H]1NC(=O)[C@H]([C@@H](C)O)NC(=O)[C@H](CC(=O)O)NC(=O)[C@H](CCC(=O)O)NC(=O)[C@@H](NC(=O)[C@H](CO)NC(=O)[C@@H](N)CCCNC(=N)N)CSSC[C@@H](C(N)=O)NC(=O)[C@H]([C@@H](C)O)NC(=O)CNC(=O)[C@@H]2CSSC[C@@H]3NC(=O)[C@H](CCCCN)NC(=O)[C@H](Cc4ccccc4)NC(=O)[C@H](C)NC(=O)[C@H]([C@@H](C)O)NC(=O)[C@H](CSSC[C@H](NC(=O)[C@H](Cc4ccccc4)NC(=O)[C@H](CO)NC(=O)[C@H](CC(C)C)NC(=O)[C@H](CCCNC(=N)N)NC(=O)[C@H](Cc4ccc(O)cc4)NC(=O)[C@H](CCCCN)NC(=O)[C@H](CCSC)NC(=O)[C@H](CO)NC(=O)[C@H](Cc4c[nH]cn4)NC(=O)[C@H](CCCNC(=N)N)NC3=O)C(=O)N[C@@H](CCCCN)C(=O)N[C@@H](CCCNC(=N)N)C(=O)N[C@@H]([C@@H](C)O)C(=O)N2)NC(=O)[C@H](CCCNC(=N)N)NC(=O)[C@H](CCC(=O)O)NC(=O)[C@H](CCC(=O)O)NC(=O)[C@@H]2CCCN2C1=O` [[Glu4,9,10; Lys16,29;Arg18, 30]ShK-amide] (H-RSCEDTIPEERCTAFKCRHSMKYRLSFCKRTCGTC-NH2; disulfide 3-35, 12-28, 17-32), the IC50 in experiment [1] amounted to 0.204 nM; in experiment [2] (setting [3]) it was 0.513 nM; at hKv1.3 it was 0.059 nM.

For `CC[C@H](C)[C@@H]1NC(=O)[C@H]([C@@H](C)O)NC(=O)[C@H](CC(=O)O)NC(=O)[C@H](CCC(=O)O)NC(=O)[C@@H](NC(=O)[C@H](CO)NC(=O)[C@@H](N)CCCNC(=N)N)CSSC[C@@H](C(N)=O)NC(=O)[C@H]([C@@H](C)O)NC(=O)CNC(=O)[C@@H]2CSSC[C@@H]3NC(=O)[C@H](CCCCN)NC(=O)[C@H](Cc4ccccc4)NC(=O)[C@H](C)NC(=O)[C@H]([C@@H](C)O)NC(=O)[C@H](CSSC[C@H](NC(=O)[C@H](Cc4ccccc4)NC(=O)[C@H](CO)NC(=O)[C@H](CC(C)C)NC(=O)[C@H](CCCNC(=N)N)NC(=O)[C@H](Cc4ccc(O)cc4)NC(=O)[C@H](CCCCN)NC(=O)[C@H](CCSC)NC(=O)[C@H](CO)NC(=O)[C@H](Cc4c[nH]cn4)NC(=O)[C@H](CCCNC(=N)N)NC3=O)C(=O)N[C@@H](CCCCN)C(=O)N[C@@H](CCCNC(=N)N)C(=O)N[C@@H]([C@@H](C)O)C(=O)N2)NC(=O)[C@H](CCCNC(=N)N)NC(=O)[C@H](CO)NC(=O)[C@H](CCC(=O)O)NC(=O)[C@@H]2CCCN2C1=O` [[Glu4,9;Lys16,29;Arg18,30]ShK-amide] (H-RSCEDTIPESRCTAFKCRHSMKYRLSFCKRTCGTC-NH2; disulfide 3-35, 12-28, 17-32), the values for the IC50 (in experiment [1]; in experiment [2] (setting [3]); at hKv1.3) were 0.151 nM, 0.345 nM and 0.062 nM, respectively.
